From ChEMBL document CHEMBL1201862, “PubChem BioAssay data set” (2004)
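Values below derive from 48-hour exposures of cells grown in 96-well plates, with endpoints linearly interpolated between the two concentrations bracketing the appropriate inhibition level. GI50: concentration for 50% inhibition of growth.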 Activity calls are given as the source filed them. Rule as the data show it: active = GI50 up to about 1.1 µM and inactive = higher.

Assays:
Assay in all cases: inhibition of tumour cell growth, NCI panel, 48 h
[1] = test system: OVCAR-8
[2] = test system: A498
[3] = test system: TK-10
[4] = test system: MDA-N
[5] = test system: 786-0
[6] = test system: MCF7
[7] = test system: NCI-H460
[8] = test system: SF-539
[9] = test system: K562
[10] = test system: SN12C
[11] = test system: HT-29
[12] = test system: SW-620
[13] = test system: SK-MEL-28
[14] = test system: SF-295
[15] = test system: UACC-62
[16] = test system: Hs-578T
[17] = test system: A549
[18] = test system: MOLT-4
[19] = test system: HL-60
[20] = test system: HOP-92

Row | SMILES | GI50 [1] | GI50 [2] | GI50 [3] | GI50 [4] | GI50 [5] | GI50 [6] | GI50 [7] | GI50 [8] | GI50 [9] | GI50 [10] | GI50 [11] | GI50 [12] | GI50 [13] | GI50 [14] | GI50 [15] | GI50 [16] | GI50 [17] | GI50 [18] | GI50 [19] | GI50 [20]
1 | CN(C)Cc1cc(/N=N/c2cccc(Cl)c2)ccc1O | 14.9 µM (inactive) | 10.9 µM (inactive) | 10.6 µM (inactive) | 10.2 µM (inactive) | 13.8 µM (inactive) | 14.8 µM (inactive) | 12.8 µM (inactive) | 16 µM (inactive) | 3.27 µM (inactive) | 28.6 µM (inactive) | 17 µM (inactive) | 10.7 µM (inactive) | 13.6 µM (inactive) | 14.7 µM (inactive) | 3.61 µM (inactive) | 11.4 µM (inactive) | 15.5 µM (inactive) | 13.2 µM (inactive) | 17.3 µM (inactive) | 6.78 µM (inactive)
2 | C[C@]12CC[C@H]3[C@@H](CC=C4C[C@@H](O)CC[C@@]43C)[C@@H]1C/C(=C\c1ccncc1)[C@@H]2O | 15 µM (inactive) | 13.9 µM (inactive) | 39.3 µM (inactive) | 21.8 µM (inactive) | 21.1 µM (inactive) | 23 µM (inactive) | 15.1 µM (inactive) | 16.9 µM (inactive) | 15.8 µM (inactive) | 17.2 µM (inactive) | 20.9 µM (inactive) | 31.1 µM (inactive) | 18.1 µM (inactive) | 16.6 µM (inactive) | 15.4 µM (inactive) | 39.3 µM (inactive) | 19.7 µM (inactive) | 9.77 µM (inactive) | 10.2 µM (inactive) | 2 µM (inactive)
3 | CC(C)(C)c1cc(/C=C(\C#N)C2=NCCO2)cc(C(C)(C)C)c1O | 4.67 µM (inactive) | 3.84 µM (inactive) | 3.48 µM (inactive) | 4.42 µM (inactive) | 3.28 µM (inactive) | 3.4 µM (inactive) | 2.51 µM (inactive) | 3.77 µM (inactive) | 3.59 µM (inactive) | 2.94 µM (inactive) | 3.2 µM (inactive) | 4.06 µM (inactive) | 6.35 µM (inactive) | 2.86 µM (inactive) | 4.31 µM (inactive) | 5.09 µM (inactive) | 4.44 µM (inactive) | 3.37 µM (inactive) | 2.12 µM (inactive) | 4.06 µM (inactive)
4 | O=C1OC(c2ccc([N+](=O)[O-])cc2)=N/C1=C\c1ccc(O)cc1 | > 100 µM (inactive) | > 100 µM (inactive) | > 100 µM (inactive) | > 100 µM (inactive) | > 100 µM (inactive) | > 100 µM (inactive) | > 100 µM (inactive) | > 100 µM (inactive) | > 100 µM (inactive) | > 100 µM (inactive) | > 100 µM (inactive) | > 100 µM (inactive) | > 100 µM (inactive) | > 100 µM (inactive) | > 100 µM (inactive) | > 100 µM (inactive) | > 100 µM (inactive) | > 100 µM (inactive) | > 100 µM (inactive) | > 100 µM (inactive)
5 | COc1cc(OC)c(/C=C\c2cc(/C=C/c3c(OC)cc(OC)cc3OC)c3ccccc3[n+]2C)c(OC)c1 | 1.94 µM (inactive) | 4.59 µM (inactive) | 16 µM (inactive) | 2.65 µM (inactive) | 2.2 µM (inactive) | 2.86 µM (inactive) | 2.21 µM (inactive) | 2.22 µM (inactive) | 1.64 µM (inactive) | 2.18 µM (inactive) | 1.83 µM (inactive) | 2.39 µM (inactive) | 3.39 µM (inactive) | 2.31 µM (inactive) | 2.82 µM (inactive) | 0.863 µM (active) | 3.94 µM (inactive) | 1.98 µM (inactive) | 2 µM (inactive) | 2.95 µM (inactive)
6 | CC1(C)CN(c2ccccc2)C(=O)C1OC(=O)[C@@]1(C)C[C@@H]2C=C[C@H]1C2 (stereo not given in full) | 32.2 µM (inactive) | 23.8 µM (inactive) | 30.7 µM (inactive) | 18.7 µM (inactive) | 21.8 µM (inactive) | 24.4 µM (inactive) | 23 µM (inactive) | 23.4 µM (inactive) | 6.15 µM (inactive) | 21.3 µM (inactive) | 12.5 µM (inactive) | 33.3 µM (inactive) | 18.1 µM (inactive) | 24.5 µM (inactive) | 18 µM (inactive) | 31 µM (inactive) | 29.6 µM (inactive) | 38.2 µM (inactive) | 20.3 µM (inactive) | 27.9 µM (inactive)
7 | C/C(=C/CC[C@](C)(OC1OC(CO)C(O)C(O)C1O)[C@H]1CC[C@]2(C)[C@@H]1CC[C@@H]1[C@@]3(C)CC[C@H](O)C(C)(C)[C@@H]3C[C@H](O)[C@]12CO)CO (stereo not given in full) | > 100 µM (inactive) | > 100 µM (inactive) | > 100 µM (inactive) | > 100 µM (inactive) | > 100 µM (inactive) | > 100 µM (inactive) | > 100 µM (inactive) | > 100 µM (inactive) | > 100 µM (inactive) | > 100 µM (inactive) | > 100 µM (inactive) | > 100 µM (inactive) | > 100 µM (inactive) | > 100 µM (inactive) | > 100 µM (inactive) | > 100 µM (inactive) | > 100 µM (inactive) | > 100 µM (inactive) | > 100 µM (inactive) | > 100 µM (inactive)
